Results from patent US7927639B2, “Mixture of Propionibacterium jensenii and Lactobacillus sp. with antimicrobial activities for the use as natural preservation system” (Eidgenossische Technische Hochschule Zurich, priority 2001, dated 2011).

Key:
Format in all cases: cell-based
[1] = tested on: Candida krusei 3-69/2; assay: Antifungal activity in agar plates; settings: storage 21 days at 6° C.; cultures incorporated in agar plates at 10^8 cfu/ml (SM17, SM39 10^7 cfu/ml); Ka-Sorbat 1 g/l; spot-inoculation with 10^6 cfu/ml
Experimental: (§1) Agar plates were prepared, supplemented with Propionbacterium jensenii SM11 or an antimicrobial Lactobacillusor a combination of both. The cultures were previously grown separately for 72 h at 32° C. in supplemented whey permeate (SWP1), centrifugated, washed once and resuspended (1:1) in 0.85% NaCl and then serially diluted in dilution-buffer (0.85% NaCl, 0.1% peptone). Portions of 20 ml of agar were prepared with 10% of each dilution to give a final level of 10^5, 10^6, 10^7 and 10^8 cfu/ml. Agar plates were poured and after solidifying, portions of approximately 2-5 μl of broth cultures of the indicator strains were spot inoculated on the plates. YM agar was used for yeasts and moulds and BHI agar for bacteria. Triplex of the agar plates were stored at 6° C., 12° C. and 25° C. for up to 4 weeks and the growth of indicator organisms was controlled weekly for 6° C. or daily for 12° C. and 25° C. As a control, agar plates without supplementation of lactobacilli and propionibacteria were prepared as well as agar plates with an addition of 1 g/l Ka-Sorbat (EU-Richtlinie, Nr. 95/2/HG).
(§2) A total of 18 lactobacilli were tested for their antifungal activities alone or in combination with the high-antifungal Propionibacterium jensenii SM11. Therefore, the strains were incorporated, after centrifugation and a washing step in concentrations from 10^5 to 10^8 cfu/ml in YM agar plates on which the fungi listed in Table 1 were spotted in corresponding levels from 10^1 to 10^7 cfu/ml. The plates were stored in different batches at 6° C., 12° C. and 25° C. The growth of yeasts was controlled weekly or daily, respectively. […] A cell number of 10^8 cfu/ml of the Lactobacillus-strain and 10^8 cfu/ml of the Propionibacterium-strain was necessary for high inhibitory activities. Table 4 indicates five examples of the antifungal activities observed at 6° C. with a concentration of 10^8 cfu/ml (10^7 cfu/ml for Lactobacillus plantarum SM17) against spot-inoculated yeasts in a density of 10^6 cfu/ml and against spot-inoculated 3-day cultures of moulds.

[2] = tested on: Candida magnoliae 1-35/1; assay: Antifungal activity in agar plates; settings: storage 21 days at 6° C.; cultures incorporated in agar plates at 10^8 cfu/ml (SM17, SM39 10^7 cfu/ml); Ka-Sorbat 1 g/l; spot-inoculation with 10^6 cfu/ml
Experimental: as §1, §2

[3] = tested on: Candida parapsilosis 4-5/1; assay: Antifungal activity in agar plates; settings: storage 21 days at 6° C.; cultures incorporated in agar plates at 10^8 cfu/ml (SM17, SM39 10^7 cfu/ml); Ka-Sorbat 1 g/l; spot-inoculation with 10^6 cfu/ml
Experimental: as §1, §2

[4] = tested on: Candida pulcherrima 1-50/13; assay: Antifungal activity in agar plates; settings: storage 21 days at 6° C.; cultures incorporated in agar plates at 10^8 cfu/ml (SM17, SM39 10^7 cfu/ml); Ka-Sorbat 1 g/l; spot-inoculation with 10^6 cfu/ml
Experimental: as §1, §2

[5] = tested on: Candida reukaufii 4-73/4; assay: Antifungal activity in agar plates; settings: storage 21 days at 6° C.; cultures incorporated in agar plates at 10^8 cfu/ml (SM17, SM39 10^7 cfu/ml); Ka-Sorbat 1 g/l; spot-inoculation with 10^6 cfu/ml
Experimental: as §1, §2

[6] = tested on: Candida silvicola 4-42/1; assay: Antifungal activity in agar plates; settings: storage 21 days at 6° C.; cultures incorporated in agar plates at 10^8 cfu/ml (SM17, SM39 10^7 cfu/ml); Ka-Sorbat 1 g/l; spot-inoculation with 10^6 cfu/ml
Experimental: as §1, §2

[7] = tested on: Candida sp. 1-50/15; assay: Antifungal activity in agar plates; settings: storage 21 days at 6° C.; cultures incorporated in agar plates at 10^8 cfu/ml (SM17, SM39 10^7 cfu/ml); Ka-Sorbat 1 g/l; spot-inoculation with 10^6 cfu/ml
Experimental: as §1, §2

[8] = tested on: Candida valida 1-48/8; assay: Antifungal activity in agar plates; settings: storage 21 days at 6° C.; cultures incorporated in agar plates at 10^8 cfu/ml (SM17, SM39 10^7 cfu/ml); Ka-Sorbat 1 g/l; spot-inoculation with 10^6 cfu/ml
Experimental: as §1, §2

[9] = tested on: Sporobolomyces salmonicolor 3-46/2; assay: Antifungal activity in agar plates; settings: storage 21 days at 6° C.; cultures incorporated in agar plates at 10^8 cfu/ml (SM17, SM39 10^7 cfu/ml); Ka-Sorbat 1 g/l; spot-inoculation with 10^6 cfu/ml
Experimental: as §1, §2

[10] = tested on: Zygosaccharomyces bailii 1-48/1; assay: Antifungal activity in agar plates; settings: storage 21 days at 6° C.; cultures incorporated in agar plates at 10^8 cfu/ml (SM17, SM39 10^7 cfu/ml); Ka-Sorbat 1 g/l; spot-inoculation with 10^6 cfu/ml
Experimental: as §1, §2

[11] = tested on: fungi listed in Table 1; assay: Antifungal activities in agar plates (overall statements); settings: YM agar plates stored at 6° C.
Experimental: as §1
A total of 18 lactobacilli were tested for their antifungal activities alone or in combination with the high-antifungal Propionibacterium jensenii SM11. […]

SMILES: C/C=C/C=C/C(=O)[O-].[K+] [Ka-Sorbat]
- colony growth of Candida krusei 3-69/2 [1]: − (− no colony (≈100% inhibition))
- colony growth of Candida magnoliae 1-35/1 [2]: ++ (++ strong colony (≈0% inhibition))
- colony growth of Candida parapsilosis 4-5/1 [3]: − (− no colony (≈100% inhibition))
- colony growth of Candida pulcherrima 1-50/13 [4]: ++ (++ strong colony (≈0% inhibition))
- colony growth of Candida reukaufii 4-73/4 [5]: ++ (++ strong colony (≈0% inhibition))
- colony growth of Candida silvicola 4-42/1 [6]: ++ (++ strong colony (≈0% inhibition))
- colony growth of Candida sp. 1-50/15 [7]: ++ (++ strong colony (≈0% inhibition))
- colony growth of Candida valida 1-48/8 [8]: − (− no colony (≈100% inhibition))
- colony growth of Sporobolomyces salmonicolor 3-46/2 [9]: − (− no colony (≈100% inhibition))
- colony growth of Zygosaccharomyces bailii 1-48/1 [10]: − (− no colony (≈100% inhibition))
- antifungal (inhibitory) activity in agar plates, in words [11]: weaker inhibitory activity
